# Results taken from PubChem BioAssay AID1963834 (Molecular Pharmacology Branch, DTP, NCI, 2024).
# System: 873145-292-R-J1-PDC complex spheroid viability
# Test: Anticancer human tumor 873145-292-R-J1-PDC patient-derived renal clear cell carcinoma cell line growth inhibition [POLQ]
# Conditions: for IC50: curve of first compound; for viability, T/C: stronger effect = lower value
# Procedure, shortened: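 Three-cell-type spheroids modelling solid tumor plus stroma served as the readout system; POL inhibitors were tested individually and in combination, concentration ranges set by clinical Cmax where known.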
# [1] = second compound 0.0316 µM, first compound 0.0316 µM
# [2] = second compound 0.0316 µM, first compound 0.1 µM
# [3] = second compound 0.0316 µM, first compound 0.316 µM
# [4] = second compound 0.0316 µM, first compound 1 µM
# [5] = second compound 0.0316 µM, first compound 3.16 µM
# [6] = second compound 0.0316 µM, first compound 10 µM
# [7] = second compound 0.1 µM, first compound 0.0316 µM
# [8] = second compound 0.1 µM, first compound 0.1 µM
# [9] = second compound 0.1 µM, first compound 0.316 µM
# [10] = second compound 0.1 µM, first compound 1 µM
# [11] = second compound 0.1 µM, first compound 3.16 µM
# [12] = second compound 0.1 µM, first compound 10 µM
# [13] = second compound 0.316 µM, first compound 0.0316 µM
# [14] = second compound 0.316 µM, first compound 0.1 µM
# [15] = second compound 0.316 µM, first compound 0.316 µM
# [16] = second compound 0.316 µM, first compound 1 µM
# [17] = second compound 0.316 µM, first compound 3.16 µM
# [18] = second compound 0.316 µM, first compound 10 µM
# [19] = second compound 1 µM, first compound 0.0316 µM
# [20] = second compound 1 µM, first compound 0.1 µM
# [21] = second compound 1 µM, first compound 0.316 µM
# [22] = second compound 1 µM, first compound 1 µM
# [23] = second compound 1 µM, first compound 3.16 µM
# [24] = second compound 1 µM, first compound 10 µM
# [25] = second compound 3.16 µM, first compound 0.0316 µM
# [26] = second compound 3.16 µM, first compound 0.1 µM
# [27] = second compound 3.16 µM, first compound 0.316 µM
# [28] = second compound 3.16 µM, first compound 1 µM
# [29] = second compound 3.16 µM, first compound 3.16 µM
# [30] = second compound 3.16 µM, first compound 10 µM
# [31] = second compound 10 µM, first compound 0.0316 µM
# [32] = second compound 10 µM, first compound 0.1 µM
# [33] = second compound 10 µM, first compound 0.316 µM
# [34] = second compound 10 µM, first compound 1 µM
# [35] = second compound 10 µM, first compound 3.16 µM
# [36] = second compound 10 µM, first compound 10 µM
# 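Also: spheroids exposed to compounds for 7 days before viability readout.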
# 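For viability, T/C in this document: luminescence signal used as surrogate for viable cell content; 100% = DMSO vehicle control viability.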
structure (smiles),measurement,setting,value
CC1COCCN1c1cc(C2(O)CC3CCC(C2)O3)c2cnn(-c3ccn[nH]3)c2n1 (stereo not drawn) + Cc1cccc(N(C)C(=O)C2C(O)CCN2c2nc(C)cc(C(F)(F)F)c2C#N)c1,IC50,second compound 0.0316 µM,478 nM
same,IC50,second compound 0.1 µM,610 nM
same,IC50,second compound 0.316 µM,405 nM
same,IC50,second compound 1 µM,511 nM
same,IC50,second compound 3.16 µM,378 nM
same,IC50,second compound 10 µM,306 nM
same,"viability, T/C",[1],84.4%
same,"viability, T/C",[2],67.5%
same,"viability, T/C",[3],54%
same,"viability, T/C",[4],44.3%
same,"viability, T/C",[5],37.2%
same,"viability, T/C",[6],38%
same,"viability, T/C",[7],93.5%
same,"viability, T/C",[8],76.4%
same,"viability, T/C",[9],57.1%
same,"viability, T/C",[10],43.2%
same,"viability, T/C",[11],39.5%
same,"viability, T/C",[12],32%
same,"viability, T/C",[13],94.5%
same,"viability, T/C",[14],82.5%
same,"viability, T/C",[15],52.5%
same,"viability, T/C",[16],40.4%
same,"viability, T/C",[17],40.3%
same,"viability, T/C",[18],35.9%
same,"viability, T/C",[19],84.8%
same,"viability, T/C",[20],71.6%
same,"viability, T/C",[21],54%
same,"viability, T/C",[22],44.1%
same,"viability, T/C",[23],42.1%
same,"viability, T/C",[24],39.8%
same,"viability, T/C",[25],90.1%
same,"viability, T/C",[26],63.1%
same,"viability, T/C",[27],55.6%
same,"viability, T/C",[28],41.3%
same,"viability, T/C",[29],36.6%
same,"viability, T/C",[30],35.6%
same,"viability, T/C",[31],86.2%
same,"viability, T/C",[32],68.8%
same,"viability, T/C",[33],49%
same,"viability, T/C",[34],38.4%
same,"viability, T/C",[35],39.5%
same,"viability, T/C",[36],32%
CC(=O)O[C@H]1C(=O)[C@@]2(C)[C@H]([C@H](OC(=O)c3ccccc3)[C@]3(O)C[C@H](OC(=O)[C@H](O)[C@@H](NC(=O)c4ccccc4)c4ccccc4)C(C)=C1C3(C)C)[C@]1(OC(C)=O)CO[C@@H]1C[C@@H]2O + Nc1ccc(C#CCN(C(=O)Cc2ncc(C(F)(F)F)cc2C(F)(F)F)c2ccc(F)cc2)nn1,IC50,second compound 0.0316 µM,> 3000 nM
same,IC50,second compound 0.1 µM,> 3000 nM
same,IC50,second compound 0.316 µM,> 3000 nM
same,IC50,second compound 1 µM,> 3000 nM
same,IC50,second compound 3.16 µM,> 3000 nM
same,IC50,second compound 10 µM,> 3000 nM
same,"viability, T/C","second compound 0.0316 µM, first compound 0.00949 µM",89.1%
same,"viability, T/C","second compound 0.0316 µM, first compound 0.03 µM",85.9%
same,"viability, T/C","second compound 0.0316 µM, first compound 0.0949 µM",79.5%
same,"viability, T/C","second compound 0.0316 µM, first compound 0.3 µM",72.9%
same,"viability, T/C","second compound 0.0316 µM, first compound 0.949 µM",67.6%
same,"viability, T/C","second compound 0.0316 µM, first compound 3 µM",71.2%
same,"viability, T/C","second compound 0.1 µM, first compound 0.00949 µM",85.4%
same,"viability, T/C","second compound 0.1 µM, first compound 0.03 µM",90.2%
same,"viability, T/C","second compound 0.1 µM, first compound 0.0949 µM",71.8%
same,"viability, T/C","second compound 0.1 µM, first compound 0.3 µM",68.3%
same,"viability, T/C","second compound 0.1 µM, first compound 0.949 µM",68.8%
same,"viability, T/C","second compound 0.1 µM, first compound 3 µM",65%
same,"viability, T/C","second compound 0.316 µM, first compound 0.00949 µM",90.3%
same,"viability, T/C","second compound 0.316 µM, first compound 0.03 µM",84.6%
same,"viability, T/C","second compound 0.316 µM, first compound 0.0949 µM",68.1%
same,"viability, T/C","second compound 0.316 µM, first compound 0.3 µM",68.8%
same,"viability, T/C","second compound 0.316 µM, first compound 0.949 µM",66.9%
same,"viability, T/C","second compound 0.316 µM, first compound 3 µM",62.8%
same,"viability, T/C","second compound 1 µM, first compound 0.00949 µM",85.2%
same,"viability, T/C","second compound 1 µM, first compound 0.03 µM",71.5%
same,"viability, T/C","second compound 1 µM, first compound 0.0949 µM",72.7%
same,"viability, T/C","second compound 1 µM, first compound 0.3 µM",70.7%
same,"viability, T/C","second compound 1 µM, first compound 0.949 µM",70.7%
same,"viability, T/C","second compound 1 µM, first compound 3 µM",68.7%
same,"viability, T/C","second compound 3.16 µM, first compound 0.00949 µM",87%
same,"viability, T/C","second compound 3.16 µM, first compound 0.03 µM",73.7%
same,"viability, T/C","second compound 3.16 µM, first compound 0.0949 µM",72.3%
same,"viability, T/C","second compound 3.16 µM, first compound 0.3 µM",72.3%
same,"viability, T/C","second compound 3.16 µM, first compound 0.949 µM",71.8%
same,"viability, T/C","second compound 3.16 µM, first compound 3 µM",69%
same,"viability, T/C","second compound 10 µM, first compound 0.00949 µM",81.1%
same,"viability, T/C","second compound 10 µM, first compound 0.03 µM",75.5%
same,"viability, T/C","second compound 10 µM, first compound 0.0949 µM",74.8%
same,"viability, T/C","second compound 10 µM, first compound 0.3 µM",67.1%
same,"viability, T/C","second compound 10 µM, first compound 0.949 µM",65.7%
same,"viability, T/C","second compound 10 µM, first compound 3 µM",74%
COc1cc(C2c3cc4c(cc3C(OC3OC5COC(C)OC5C(O)C3O)C3COC(=O)C23)OCO4)cc(OC)c1O (stereo not drawn) + Nc1ccc(C#CCN(C(=O)Cc2ncc(C(F)(F)F)cc2C(F)(F)F)c2ccc(F)cc2)nn1,IC50,second compound 0.0316 µM,> 10000 nM
same,IC50,second compound 0.1 µM,> 10000 nM
same,IC50,second compound 0.316 µM,> 10000 nM
same,IC50,second compound 1 µM,> 10000 nM
same,IC50,second compound 3.16 µM,> 10000 nM
same,IC50,second compound 10 µM,> 10000 nM
same,"viability, T/C",[1],107%
same,"viability, T/C",[2],104%
same,"viability, T/C",[3],105%
same,"viability, T/C",[4],95.3%
same,"viability, T/C",[5],82.3%
same,"viability, T/C",[6],68%
same,"viability, T/C",[7],107%
same,"viability, T/C",[8],118%
same,"viability, T/C",[9],97.7%
same,"viability, T/C",[10],88.6%
same,"viability, T/C",[11],83.9%
same,"viability, T/C",[12],58.7%
same,"viability, T/C",[13],103%
same,"viability, T/C",[14],106%
same,"viability, T/C",[15],109%
same,"viability, T/C",[16],98.8%
same,"viability, T/C",[17],87.6%
same,"viability, T/C",[18],62%
same,"viability, T/C",[19],99.5%
same,"viability, T/C",[20],105%
same,"viability, T/C",[21],107%
same,"viability, T/C",[22],95.3%
same,"viability, T/C",[23],87.4%
same,"viability, T/C",[24],72.8%
same,"viability, T/C",[25],112%
same,"viability, T/C",[26],109%
same,"viability, T/C",[27],109%
same,"viability, T/C",[28],93.3%
same,"viability, T/C",[29],76.3%
same,"viability, T/C",[30],58.8%
same,"viability, T/C",[31],103%
same,"viability, T/C",[32],107%
same,"viability, T/C",[33],110%
same,"viability, T/C",[34],97.1%
same,"viability, T/C",[35],78.5%
same,"viability, T/C",[36],67.3%
COc1cccc2c1C(=O)c1c(O)c3c(c(O)c1C2=O)CC(O)(C(=O)CO)CC3OC1CC(N)C(O)C(C)O1 (stereo not drawn) + Nc1ccc(C#CCN(C(=O)Cc2ncc(C(F)(F)F)cc2C(F)(F)F)c2ccc(F)cc2)nn1,IC50,second compound 0.0316 µM,1600 nM
same,IC50,second compound 0.1 µM,1640 nM
same,IC50,second compound 0.316 µM,1620 nM
same,IC50,second compound 1 µM,1660 nM
same,IC50,second compound 3.16 µM,1250 nM
same,IC50,second compound 10 µM,877 nM
same,"viability, T/C",[1],100%
same,"viability, T/C",[2],86.6%
same,"viability, T/C",[3],95.9%
same,"viability, T/C",[4],81.7%
same,"viability, T/C",[5],3.57%
same,"viability, T/C",[6],1.97%
same,"viability, T/C",[7],113%
same,"viability, T/C",[8],93.3%
same,"viability, T/C",[9],85.1%
same,"viability, T/C",[10],84.7%
same,"viability, T/C",[11],3.75%
same,"viability, T/C",[12],2.69%
same,"viability, T/C",[13],98.9%
same,"viability, T/C",[14],91.9%
same,"viability, T/C",[15],84.3%
same,"viability, T/C",[16],83%
same,"viability, T/C",[17],4.08%
same,"viability, T/C",[18],2.88%
same,"viability, T/C",[19],99.1%
same,"viability, T/C",[20],85.7%
same,"viability, T/C",[21],84.5%
same,"viability, T/C",[22],86.2%
same,"viability, T/C",[23],3.81%
same,"viability, T/C",[24],3.33%
same,"viability, T/C",[25],92.4%
same,"viability, T/C",[26],93.9%
same,"viability, T/C",[27],99%
same,"viability, T/C",[28],61.4%
same,"viability, T/C",[29],1.38%
same,"viability, T/C",[30],2.89%
same,"viability, T/C",[31],106%
same,"viability, T/C",[32],97.5%
same,"viability, T/C",[33],111%
same,"viability, T/C",[34],42.9%
same,"viability, T/C",[35],1.14%
same,"viability, T/C",[36],2.84%
